Measured values: US20090062255A1, “TUMOR-TARGETING EVALUATION METHODOLOGY AND COMPOUNDS RELATED THERETO” (THALLION PHARMACEUTICALS INC., priority 2007, published 2009)

Test system: SRBC
Assay: Hemolysis of SRBC
Assay type: cell-based
Conditions: concentration necessary to achieve 50% hemolysis of SRBC

For CCN1c2c(O)cccc2C(=O)N(C/C=C(\C)CC/C=C(\C)CCC=C(C)C)c2cc(O)cc(O)c21 [Compound 14, 10-farnesyl-4,6,8-trihydroxy-5-ethyl-5,10-dihydro-dibenzo[b,e][1,4]diazepin-11-one], the “Hemolysis (ED50 μg/mL)” value was 43.9 µg/mL.
With CC(C)=CCCC1(C)OC1CC/C(C)=C/CN1C(=O)c2cccc(O)c2Nc2c(O)cc(O)cc21 (stereo not shown) [Compound 17, 10-(3,7,11-trimethyl-6,7-epoxydodeca-2,10-dienyl)-4,6,8-trihydroxy-5,10-dihydro-dibenzo[b,e][1,4]diazepin-11-one] the “Hemolysis (ED50 μg/mL)” value was 35.0 µg/mL.
For CCCN1c2c(O)cccc2C(=O)N(C/C=C(\C)CC/C=C(\C)CCC=C(C)C)c2cc(O)cc(O)c21 [Compound 63, 10-farnesyl-4,6,8-trihydroxy-5-n-propyl-5,10-dihydro-dibenzo[b,e][1,4]diazepin-11-one], the “Hemolysis (ED50 μg/mL)” value was >64 µg/mL.
For CCCCN1c2c(O)cccc2C(=O)N(C/C=C(\C)CC/C=C(\C)CCC=C(C)C)c2cc(O)cc(O)c21 [Compound 64, 10-farnesyl-4,6,8-trihydroxy-5-n-butyl-5,10-dihydro-dibenzo[b,e][1,4]diazepin-11-one], the “Hemolysis (ED50 μg/mL)” value was >64 µg/mL.
CCCCCCN1c2c(O)cccc2C(=O)N(C/C=C(\C)CC/C=C(\C)CCC=C(C)C)c2cc(O)cc(O)c21 [Compound 67, 10-farnesyl-4,6,8-trihydroxy-5-n-hexyl-5,10-dihydro-dibenzo[b,e][1,4]diazepin-11-one] was tested, and the “Hemolysis (ED50 μg/mL)” value was >64 µg/mL.
With CCC(C)N1c2c(O)cccc2C(=O)N(C/C=C(\C)CC/C=C(\C)CCC=C(C)C)c2cc(O)cc(O)c21 (stereo not shown) [Compound 77, 10-Farnesyl-4,6,8-trihydroxy-5-sec-butyl-5,10-dihydro-dibenzo[b,e][1,4]diazepin-11-one] the “Hemolysis (ED50 μg/mL)” value was 60.9 µg/mL.
For CC(C)CCCC(C)CCCC(C)CCN1C(=O)c2cccc(O)c2N(C)c2c(O)cc(O)cc21 (stereo not shown) [Compound 78, 10-(3,7,11-trimethyldodecyl)-4,6,8-trihydroxy-5-methyl-5,10-dihydro-dibenzo[b,e][1,4]diazepin-11-one], the “Hemolysis (ED50 μg/mL)” value was 9.89 µg/mL.
COC(C)(CCC=C(C)C)CCC/C(C)=C/CN1C(=O)c2cccc(O)c2N(C)c2c(O)cc(O)cc21 (stereo not shown) [Compound 80, 10-(7-methoxy-3,7,11-trimethyldodeca-2,10-dienyl)-4,6,8-trihydroxy-5-methyl-5,10-dihydro-dibenzo[b,e][1,4]diazepin-11-one] was tested, and the “Hemolysis (ED50 μg/mL)” value was >64 µg/mL.
In the case of COC(C)(C)CCCC(C)=CCCC(C)=CCN1C(=O)c2cccc(O)c2Nc2c(O)cc(O)cc21 [Compound 82, 10-(11-methoxy-3,7,11-trimethyl-2,6-dodecadienyl)-4,6,8-trihydroxy-5,10-dihydro-dibenzo[b,e][1,4]diazepin-11-one], the “Hemolysis (ED50 μg/mL)” value is reported as >64 µg/mL.
COC(C)(C)CCCC(C)(CCCC(C)=CCN1C(=O)c2cccc(O)c2Nc2c(O)cc(O)cc21)OC (stereo not shown) [Compound 84, 10-(7,11-dimethoxy-3,7,11-trimethyl-2-dodecenyl)-4,6,8-trihydroxy-5,10-dihydro-dibenzo[b,e][1,4]diazepin-11-one] was tested, and the “Hemolysis (ED50 μg/mL)” value was >32 µg/mL.
For CCN1c2c(O)cccc2C(=O)N(CC=C(C)CCC=C(C)CCCC(C)(C)OC)c2cc(O)cc(O)c21 [Compound 85, 10-(11-methoxy-3,7,11-trimethyl-2,6-dodecadienyl)-4,6,8-trihydroxy-5-ethyl-5,10-dihydro-dibenzo[b,e][1,4]diazepin-11-one], the “Hemolysis (ED50 μg/mL)” value was >64 µg/mL.
In the case of CCN1c2c(O)cccc2C(=O)N(CC=C(C)CCCC(C)(CCCC(C)(C)OC)OC)c2cc(O)cc(O)c21 (stereo not shown) [Compound 87, 10-(7,11-dimethoxy-3,7,11-trimethyl-2-dodecenyl)-4,6,8-trihydroxy-5-ethyl-5,10-dihydro-dibenzo[b,e][1,4]diazepin-11-one], the “Hemolysis (ED50 μg/mL)” value is reported as >64 µg/mL.
For CC(C)=CCCC(C)(O)CCCC(C)=CCN1C(=O)c2cccc(O)c2Nc2c(O)cc(O)cc21 (stereo not shown) [Compound 89, 10-(7-hydroxy-3,7,11-trimethyldodeca-2,10-dienyl)-4,6,8-trihydroxy-5,10-dihydro-dibenzo[b,e][1,4]diazepin-11-one], the “Hemolysis (ED50 μg/mL)” value was >64 µg/mL.
